Measurements published in patent publication US20260284002A1, “COMPOSITIONS AND METHODS OF CONTROLLING MAMMALIAN SATIETY” (VitaKey Inc., priority 2023, published 2026).

Experiment: Release of linoleic acid in simulated intestinal fluid with 0.2% (w/v) sodium taurocholate
Format: physicochemical
Details: simulated intestinal fluid 37° C. with 0.2% (w/v) sodium taurocholate; FIG. 25B
Experimental: A mixture of 40% (w/w) linoleic acid, 30% (w/w) 27-Stearine, and 30% (w/w) CITREM was heated to 80° C. while stirring to allow for complete mixing, followed by cooling at 4° C. for 1 hour. […] Formulated linoleic acid microparticles were added to 3 of these 6 tubes, while unformulated linoleic acid was added to the remaining 3 tubes.

CCCCC/C=C\C/C=C\CCCCCCCC(=O)O [unformulated linoleic acid, linoleic acid]
emulsification in bile-salt rich simulated intestinal fluid: rapidly emulsified
